≈ marks a conversion by molar mass, not a printed value. Like-named read-outs stand apart in the source and are kept apart here.
Assays:
Mtb ClpP1P2 = Mtb ClpP1P2 (Mycobacterium tuberculosis, UniProt P9WPC3+P9WPC5); assay: Mtb ClpP1P2 peptidase assay (library screening and IC50 determination); format: biochemical
M. tuberculosis H37Rv = assay: MIC against Mtb H37Rv; format: cell-based, Mycobacterium tuberculosis; details: for MIC90: Mycobacterium tuberculosis, H37RV
GH189 (clpP1‐KD) = assay: microbe, parasite or virus in culture; format: cell-based, M. bovis BCG; details: for MIC: Mycobacterium tuberculosis variant bovis BCG
[1] = Figure 2B, neat/synthesized compounds, read-out: ClpP1P2 IC50
[2] = Figure S4, highest concentration 100 µM, read-out: concentration inhibiting 50% of the peptidase activity
[3] = read-out: MIC (µg/ml) when clpP1‐KD induced
[4] = read-out: MIC (µg/ml) when no clpP1‐KD

Sequence of Mtb ClpP1P2 (P9WPC3 16-214, one chain of several): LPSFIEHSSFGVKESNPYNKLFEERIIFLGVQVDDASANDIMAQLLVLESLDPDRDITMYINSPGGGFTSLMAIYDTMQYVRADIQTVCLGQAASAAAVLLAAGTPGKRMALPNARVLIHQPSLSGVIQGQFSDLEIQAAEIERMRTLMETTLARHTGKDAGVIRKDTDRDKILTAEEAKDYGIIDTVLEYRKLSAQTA

Molecule | MIC (GH189 (clpP1‐KD); [3]) | MIC (GH189 (clpP1‐KD); [4]) | also measured
O=C(Oc1ccccc1)c1ccc(N2CCOCC2)c([N+](=O)[O-])c1 [GDI‐5756] | – | – | inhibition of ClpP1P2 peptidase at 100 µM (Mtb ClpP1P2): Neither analog could inhibit; IC50 (Mtb ClpP1P2; [1]): > 100 µM; inhibition of Mtb whole cell at 100 µM (M. tuberculosis H37Rv): Neither analog could inhibit; MIC90 (M. tuberculosis H37Rv): > 100 µM; MIC shift against GH189 on ATc induction (GH189 (clpP1‐KD)): marginally shifted down
O=C(Nc1ccc(Cl)cc1)c1ccc(N2CCOCC2)c([N+](=O)[O-])c1 [GDI‐5757] | – | – | inhibition of ClpP1P2 peptidase at 100 µM (Mtb ClpP1P2): Neither analog could inhibit; IC50 (Mtb ClpP1P2; [1]): > 100 µM; inhibition of Mtb whole cell at 100 µM (M. tuberculosis H37Rv): Neither analog could inhibit; MIC90 (M. tuberculosis H37Rv): > 100 µM; MIC shift against GH189 on ATc induction (GH189 (clpP1‐KD)): remained inactive
NC(=O)c1cnccn1 [Pyrazinamide, reference compound] | – | – | IC50 (Mtb ClpP1P2; [2]): > 100 µM
[H]/N=C(/N)N[C@H]1[C@H](O)[C@@H](O)[C@H](O[C@@H]2O[C@@H](C)[C@](O)(C=O)[C@H]2O[C@@H]2O[C@@H](CO)[C@H](O)[C@@H](O)[C@@H]2NC)[C@@H](N/C(N)=N\[H])[C@@H]1O [Streptomycin] | 0.23 µg/mL (≈ 0.395 µM) | 0.24 µg/mL (≈ 0.413 µM) | –
CC[C@H]1OC(=O)[C@H](C)[C@@H](O[C@H]2C[C@@](C)(OC)[C@@H](O)[C@H](C)O2)[C@H](C)[C@@H](O[C@@H]2O[C@H](C)C[C@H](N(C)C)[C@H]2O)[C@](C)(O)C[C@@H](C)CN(C)[C@H](C)[C@@H](O)[C@]1(C)O [Azithromycin] | 0.46 µg/mL (≈ 0.614 µM) | 0.5 µg/mL (≈ 0.668 µM) | –
CO[C@H]1/C=C/O[C@@]2(C)Oc3c(C)c(O)c4c(O)c(cc(O)c4c3C2=O)NC(=O)/C(C)=C\C=C\[C@H](C)[C@H](O)[C@@H](C)[C@@H](O)[C@@H](C)[C@H](OC(C)=O)[C@@H]1C [Rifamycin, reference compound] | – | – | IC50 (Mtb ClpP1P2; [2]): > 100 µM
CO[C@H]1/C=C/O[C@@]2(C)Oc3c(C)c(O)c4c(O)c(c(/C=N/N5CCN(C)CC5)c(O)c4c3C2=O)NC(=O)/C(C)=C\C=C\[C@H](C)[C@H](O)[C@@H](C)[C@@H](O)[C@@H](C)[C@H](OC(C)=O)[C@@H]1C [Rifampicin] | 0.01 µg/mL (≈ 0.0122 µM) | 0.01 µg/mL (≈ 0.0122 µM) | –
NNC(=O)c1ccncc1 [Isoniazid] | 0.057 µg/mL (≈ 0.416 µM) | 0.066 µg/mL (≈ 0.481 µM) | IC50 (Mtb ClpP1P2; [2]): > 100 µM
CC[C@@H](CO)NCCN[C@@H](CC)CO [Ethambutol] | 0.28 µg/mL (≈ 1.37 µM) | 0.62 µg/mL (≈ 3.03 µM) | downshift in the MIC against GH189 on clpP1‐KD (GH189 (clpP1‐KD)): > 2 fold
Capreomycin | – | – | MIC (µg/ml) when clpP1‐KD induced (GH189 (clpP1‐KD)): 0.14 µg/mL; MIC (µg/ml) when no clpP1‐KD (GH189 (clpP1‐KD)): 0.25 µg/mL
O=C(Oc1ccc(Cl)cc1)c1ccc(COC(=O)c2cnccn2)cc1 [SAM002946897] | – | – | IC50 (Mtb ClpP1P2; library stocks, concentration–response, read-out: IC50): 3.23 µM
N[C@@H]1CON=C1O [D‐Cycloserine] | 9.3 µg/mL (≈ 91.1 µM) | 11 µg/mL (≈ 108 µM) | –
COc1nc2ccc(Br)cc2cc1[C@@H](c1ccccc1)[C@@](O)(CCN(C)C)c1cccc2ccccc12 [Bedaquiline] | 0.06 µg/mL (≈ 0.108 µM) | 0.06 µg/mL (≈ 0.108 µM) | –
CC[C@H]1OC(=O)[C@H](C)[C@@H](O[C@H]2C[C@@](C)(OC)[C@@H](O)[C@H](C)O2)[C@H](C)[C@@H](O[C@@H]2O[C@H](C)C[C@H](N(C)C)[C@H]2O)[C@](C)(OC)C[C@@H](C)C(=O)[C@H](C)[C@@H](O)[C@]1(C)O [Clarithromycin] | 0.1 µg/mL (≈ 0.134 µM) | 0.11 µg/mL (≈ 0.147 µM) | –
CC(=O)NC[C@H]1CN(c2ccc(N3CCOCC3)c(F)c2)C(=O)O1 [Linezolid] | 0.97 µg/mL (≈ 2.88 µM) | 1 µg/mL (≈ 2.96 µM) | –
C[C@@H](O)[C@H]1C(=O)N2C(C(=O)O)=C(S[C@@H]3CN[C@H](C(=O)N(C)C)C3)[C@H](C)[C@H]12 [Meropenem] | 1.6 µg/mL (≈ 4.17 µM) | 5.3 µg/mL (≈ 13.8 µM) | IC50 (Mtb ClpP1P2; [2]): > 100 µM; downshift in the MIC against GH189 on clpP1‐KD (GH189 (clpP1‐KD)): > 2 fold
O=[N+]([O-])c1cn2c(n1)OC[C@@H](OCc1ccc(OC(F)(F)F)cc1)C2 [Pretomanid] | 0.06 µg/mL (≈ 0.167 µM) | 0.12 µg/mL (≈ 0.334 µM) | –
CCc1cc(C(N)=S)ccn1 [Ethionamide] | 6.4 µg/mL (≈ 38.5 µM) | 46 µg/mL (≈ 277 µM) | IC50 (Mtb ClpP1P2; [2]): > 100 µM; downshift in the MIC against GH189 on clpP1‐KD (GH189 (clpP1‐KD)): > 2 fold

Source: paper PMC12042115 (mLife, 2025)
